Laboratory results taken from the supplement of paper PMC13380429.

Tests used:
HepG2 [1] = assay: drug sensitivity score (DSS) for viability; higher = more toxic; extreme values may be limits of the assay; conditions: 72 h
U2OS [2] = assay: as above; conditions: 72 h
Calu-3 [3] = assay: as above; conditions: 72 h
Vero E6 [4] = assay: as above; conditions: 72 h
Caco-2 [5] = assay: as above; conditions: 72 h
[6] = tested on: A549-ACE2 infected with SARS-CoV-2; assay: cell count relative to DMSO; higher = less toxic; conditions: 24 h
[7] = tested on: A549-ACE2 infected with SARS-CoV-2; assay: SARS-CoV-2 infection rate relative to DMSO; higher = more infection; conditions: 24 h
[8] = tested on: A549-ACE2 infected with SARS-CoV-2; assay: morphology score (similarity to uninfected cells); higher = more like uninfected cells; conditions: 24 h
A549-ACE2 [9] = assay: drug-induced phospholipidosis relative to tamoxifen; higher = more phospholipidosis
HepG2 [10] = assay: cell viability relative to DMSO; higher = less toxic; conditions: 72 h
U2OS [11] = assay: as above; conditions: 72 h
Calu-3 [12] = assay: as above; conditions: 72 h
Vero E6 [13] = assay: as above; conditions: 72 h
Caco-2 [14] = assay: as above; conditions: 72 h
HepG2 [15] = assay: relative viability EC50 (midpoint between 100% and the lowest measured viability); higher = less toxic; conditions: 72 h
U2OS [16] = assay: as above; conditions: 72 h
Calu-3 [17] = assay: as above; conditions: 72 h
Vero E6 [18] = assay: as above; conditions: 72 h
Caco-2 [19] = assay: as above; conditions: 72 h
A549-ACE2 [20] = assay: phospholipidosis EC50; higher = less potent phospholipidosis inducer

CCN(CC)C(=S)SSC(=S)N(CC)CC [disulfiram]
Conditions | drug sensitivity score | relative viability EC50 [nM]
Caco-2 [5] | 27.5 | –
Caco-2 [19] | – | 31.4
Calu-3 [3] | 0 | –
Calu-3 [17] | – | > 10000
HepG2 [1] | 21.4 | –
HepG2 [15] | – | 93.6
U2OS [2] | 0.2 | –
U2OS [16] | – | > 10000
Vero E6 [4] | 0 | –
Vero E6 [18] | – | > 10000

Conditions | SARS-CoV-2 infection rate, [7] [%] | cell count, [6] [%] | cell viability, Caco-2 [14] [%] | cell viability, Calu-3 [12] [%] | cell viability, HepG2 [10] [%] | cell viability, U2OS [11] [%] | cell viability, Vero E6 [13] [%] | morphology score, [8]
1 nM | – | – | 103 | 101 | 104 | 100 | 108 | –
10 nM | – | – | 90.1 | 90.5 | 103 | 99.6 | 104 | –
100 nM | – | – | 19.1 | 94.7 | 53.2 | 99 | 101 | –
0.3 µM | 84 | 105 | – | – | – | – | – | 0.44
1000 nM | – | – | 9.6 | 36.9 | 13.7 | 78 | 89.3 | –
3 µM | 76 | 106 | – | – | – | – | – | 0.45
10 µM | 27 | 63 | – | – | – | – | – | 0.51
10000 nM | – | – | 75.3 | 106 | 95 | 94.6 | 99.6 | –
30 µM | 32 | 58 | – | – | – | – | – | 0.35

drug-induced phospholipidosis [%], A549-ACE2 [9]
Conditions | 0.3 µM | 0.833333 µM | 3.33333 µM | 6.66667 µM | 10 µM | 30 µM
24 h | 2.43 | -1.42 | 2.59 | -0.54 | 2.87 | 7.83
48 h | – | – | – | -0.28 | 1.88 | –
72 h | – | – | – | 1.75 | 1.77 | –

OCCN1CCN(CCCN2c3ccccc3Sc3ccc(C(F)(F)F)cc32)CC1 [fluphenazine]
Conditions | drug sensitivity score | relative viability EC50 [nM]
Caco-2 [5] | 3.4 | –
Calu-3 [3] | 4.5 | –
Calu-3 [17] | – | 2990
HepG2 [1] | 3.3 | –
HepG2 [15] | – | 2530
U2OS [2] | 0.5 | –
U2OS [16] | – | > 10000
Vero E6 [4] | 3.2 | –

Conditions | SARS-CoV-2 infection rate [%] | cell count [%] | cell viability [%] | morphology score | phospholipidosis EC50 [nM]
A549-ACE2 [20], 24 h | – | – | – | – | 3490
A549-ACE2 [20], 48 h | – | – | – | – | 5080
A549-ACE2 [20], 72 h | – | – | – | – | 6620
Caco-2 [14], 1 nM | – | – | 101 | – | –
Caco-2 [14], 10 nM | – | – | 100 | – | –
Caco-2 [14], 100 nM | – | – | 88.2 | – | –
Caco-2 [14], 1000 nM | – | – | 85.2 | – | –
Caco-2 [14], 10000 nM | – | – | 64.4 | – | –
Calu-3 [12], 1 nM | – | – | 101 | – | –
Calu-3 [12], 10 nM | – | – | 110 | – | –
Calu-3 [12], 100 nM | – | – | 96.8 | – | –
Calu-3 [12], 1000 nM | – | – | 98.1 | – | –
Calu-3 [12], 10000 nM | – | – | 22.4 | – | –
HepG2 [10], 1 nM | – | – | 102 | – | –
HepG2 [10], 10 nM | – | – | 90.9 | – | –
HepG2 [10], 100 nM | – | – | 95.9 | – | –
HepG2 [10], 1000 nM | – | – | 96.1 | – | –
HepG2 [10], 10000 nM | – | – | 49.4 | – | –
U2OS [11], 1 nM | – | – | 101 | – | –
U2OS [11], 10 nM | – | – | 101 | – | –
U2OS [11], 100 nM | – | – | 94.7 | – | –
U2OS [11], 1000 nM | – | – | 92.6 | – | –
U2OS [11], 10000 nM | – | – | 84.2 | – | –
Vero E6 [13], 1 nM | – | – | 103 | – | –
Vero E6 [13], 10 nM | – | – | 100 | – | –
Vero E6 [13], 100 nM | – | – | 101 | – | –
Vero E6 [13], 1000 nM | – | – | 95.5 | – | –
Vero E6 [13], 10000 nM | – | – | 52 | – | –
[6], 0.1 µM | – | 103 | – | – | –
[6], 0.3 µM | – | 99 | – | – | –
[6], 1 µM | – | 90 | – | – | –
[6], 3 µM | – | 122 | – | – | –
[7], 0.1 µM | 97 | – | – | – | –
[7], 0.3 µM | 99 | – | – | – | –
[7], 1 µM | 83 | – | – | – | –
[7], 3 µM | 44 | – | – | – | –
[8], 0.1 µM | – | – | – | 0.13 | –
[8], 0.3 µM | – | – | – | 0.02 | –
[8], 1 µM | – | – | – | 0.49 | –
[8], 3 µM | – | – | – | 0.75 | –

drug-induced phospholipidosis [%], A549-ACE2 [9]
Conditions | 0.3 µM | 0.833333 µM | 3.33333 µM | 6.66667 µM | 10 µM | 30 µM
24 h | 3.92 | 11.1 | 44.3 | 81.8 | 103 | 78.9
48 h | 2.29 | 10 | 32.4 | 91.3 | 114 | –
72 h | 4.14 | 10.7 | 24.3 | 80.2 | 116 | –

CC(C)C[C@H](NC(=O)CNC(=O)c1cc(Cl)ccc1Cl)B(O)O [ixazomib]
Conditions | drug sensitivity score | relative viability EC50 [nM]
Caco-2 [5] | 25.9 | –
Caco-2 [19] | – | 58.8
Calu-3 [3] | 24.6 | –
Calu-3 [17] | – | 71.4
HepG2 [1] | 16.8 | –
HepG2 [15] | – | 383
U2OS [2] | 20.5 | –
U2OS [16] | – | 197
Vero E6 [4] | 18.9 | –
Vero E6 [18] | – | 218

Conditions | SARS-CoV-2 infection rate, [7] [%] | cell count, [6] [%] | cell viability, Caco-2 [14] [%] | cell viability, Calu-3 [12] [%] | cell viability, HepG2 [10] [%] | cell viability, U2OS [11] [%] | cell viability, Vero E6 [13] [%] | morphology score, [8]
1 nM | – | – | 86.9 | 90 | 107 | 95.9 | 97.4 | –
10 nM | – | – | 102 | 99 | 105 | 93.4 | 99.3 | –
0.1 µM | 99 | 90 | – | – | – | – | – | 0.03
100 nM | – | – | 24.4 | 35.8 | 99.5 | 84.5 | 78.5 | –
0.3 µM | 98 | 80 | – | – | – | – | – | 0.25
1 µM | 64 | 72 | – | – | – | – | – | 0.26
1000 nM | – | – | 4.7 | 5.8 | 7.7 | 1.3 | 11.5 | –
3 µM | 46 | 59 | – | – | – | – | – | 0.26
10000 nM | – | – | 7.3 | 5.7 | 0.6 | -0.1 | 3.7 | –

A549-ACE2 [9], 0.3 µM
Conditions | drug-induced phospholipidosis [%]
24 h | -5.63
48 h | -3.87
72 h | -1.4

CN1C(=O)/C(=C2/C(=O)Nc3ccccc32)c2ccccc21 [meisoindigo]
Conditions | drug sensitivity score | relative viability EC50 [nM]
Caco-2 [5] | 2.2 | –
HepG2 [1] | 5.6 | –
HepG2 [15] | – | 868
U2OS [2] | 0 | –
U2OS [16] | – | > 10000
Vero E6 [4] | 3.8 | –
Vero E6 [18] | – | 2180

Conditions | SARS-CoV-2 infection rate, [7] [%] | cell count, [6] [%] | cell viability, Caco-2 [14] [%] | cell viability, HepG2 [10] [%] | cell viability, U2OS [11] [%] | cell viability, Vero E6 [13] [%] | morphology score, [8]
1 nM | – | – | 94.4 | 96.1 | 98 | 104 | –
10 nM | – | – | 104 | 101 | 102 | 102 | –
0.1 µM | 103 | 101 | – | – | – | – | -0.25
100 nM | – | – | 93.1 | 90.6 | 97.4 | 98.8 | –
0.3 µM | 103 | 102 | – | – | – | – | -0.21
1 µM | 102 | 98 | – | – | – | – | -0.24
1000 nM | – | – | 87.2 | 75.5 | 99 | 93.7 | –
3 µM | 97 | 101 | – | – | – | – | -0.12
10000 nM | – | – | 73.1 | 49 | 90.1 | 47.7 | –

drug-induced phospholipidosis [%], A549-ACE2 [9]
Conditions | 0.3 µM | 0.833333 µM | 3.33333 µM | 6.66667 µM | 10 µM | 30 µM
24 h | -2.39 | -5.22 | -2.5 | -1.79 | – | 6.15
48 h | -0.22 | -2.93 | -2.52 | 0.92 | – | 4.45
72 h | 0.716 | -2.02 | -1.09 | 1.04 | 9.76 | 5.86
